According to patent publication US10357486B2, “Treatment of cognitive impairment with PDE4 inhibitor” (Universiteit Maastricht, priority 2013, dated 2019):
Marks after values point to notes of the source that are not given here.

Legend:
[1] = system: phosphodiesterase 4; conditions: after administration of roflumilast; stated as believed; cited from earlier work
[2] = Plasma concentration levels of roflumilast and roflumilast-N-oxide in humans; type: in vivo, human
Text: An interim analysis has been performed based on the data of 9 subjects of the Impaired Elderly group and 4 subjects of the Healthy Elderly group. For this purpose, cognitive battery test scores (VLT, SMT, Stroop task and BL-VAS) and concentrations of roflumilast and roflumilast-N-oxide in plasma have been analysed and summarized by dose over each scheduled sampling time using descriptive statistics.

[3] = system: xylazine/ketamine induced α2-adrenergic receptor-mediated anesthesia; test: xylazine/ketamine induced α2-adrenergic receptor-mediated anesthesia test (emetic potential); type: in vivo; conditions: in vivo, 0.3 mg/kg
Text: Since emesis is a typical side-effect of phosphodiesterase 4 inhibitors the emetic potential of roflumilast and rolipram was investigated in parallel using the xylazine/ketamine induced α2-adrenergic receptor-mediated anesthesia test. The results confirmed that the two phosphodiesterase 4 inhibitors have different effects on emesis.

[4] = system: spatial memory in male C57BL/6NCrl mice; test: Object Location Task (OLT), 24-hour retention interval; type: in vivo; conditions: for d2 index, discrimination index between the new and familiar objects for T2: given 3 hours after T1, T2 after 24 h, mean (SEM)
Text: The objective of this study was to evaluate the cognitive improvement effects of Roflumilast on spatial memory employing Object Location Task (OLT) in male C57BL/6NCrl mice. Roflumilast was compared with data of the already established PDE4 inhibitor Rolipram in the same model.
Maintenance of Animals Twenty-four 7 month-old male C57BL/6NCrl mice (Charles River, L'Arbresle, France) were used (average body weights: 27.6 g). The animals were kept under a 12/12-hour light/dark cycle (lights on from 07.00 pm to 07.00 am) with free access to food and water. All testing was done between 09.00 am and maximally 06.00 pm.
Preparation of Compounds for Administration Both rolipram (Sigma-Aldrich St. Louis, USA; MW 275.34) and roflumilast (Biocrea, Radebeul, Germany; MW 403.21) were dissolved in dimethylsulfoxide (DMSO) and kept at 4 ° C.; this stock solution was used for further dilutions in 0.5% methylcellulose. Each of rolipram and roflumilast is used in form of its free base. All injected solutions consisted of 0.5% methylcellulose with a fixed DMSO percentages (1.2%) (vehicle).
Object Location Task Studies in Rodents For the Object Location Task (OLT), doses of 0.01 mg/kg, 0.03 mg/kg and 0.1 mg/kg of Rolipram or Roflumilast or vehicle were administered subcutaneously (s.c.). Based on previous findings, PDE4 inhibitor single administration was performed 3 hours after the first trial as this has an optimum effect on object memory performance. The injection volume was 5 μl/g.
The OLT apparatus consisted of a circular arena, 40 cm in diameter. Half of the 40 cm transparent polyvinyl chloride wall was covered from the outside with white paper. Two objects were placed symmetrically about 10 cm away from the wall on the separation line, between the transparent and covered side of the arena. Four different sets of objects were available: (1) a cone made of brass (maximal diameter 6 cm and total height 3.8 cm), (2) a transparent glass bottle (diameter 2.7 cm, height 8.5 cm) filled with sand and water, (3) a massive metal cube (2.5 cm×5 cm×7.5 cm) with two holes (diameter 1.5 cm), and (4) a massive aluminum cube with a tapering top (4.5 cm×4.5 cm×8.5 cm).
A testing session comprised two trials of 4 minutes. Before each trial, mice were placed in an empty Makrolon cage (incubation cage) for the same amount of time as the trial (4 min). During the first trial (T1), two identical objects were placed symmetrically about 10 cm away from the wall on the separation line between the transparent and covered side of the arena. After the first exploration period of 4 min, the mouse was put back in its home cage. Mice then received treatment at 3 hours post T1. Subsequently, after a predetermined delay interval (24h), the mouse was placed in the apparatus for the second trial of 4 min (T2). Two identical objects as in T1 were used; one object was placed in the previously used position, whereas the other was placed in a novel position. The novel position of the object could either be a fixed distance towards the front or a fixed distance towards the back of the arena for both objects. The times spent exploring each object during T1 and T2 were recorded manually using a personal computer. All objects and locations were used in a balanced manner to exclude possible object and/or location preferences. To avoid olfactory cues, the objects were thoroughly cleaned with 70% ethanol after each trial. The testing order of conditions was determined randomly.
Statistical Data Analysis The measurements reflected the time spent by the mice in exploring each object during T1 and T2. The time spent in exploring the two identical samples in T1 were represented by ‘a1’ and ‘a2’, respectively. The time spent in exploring the sample and the new object in T2 were represented by ‘a’ and ‘b’, respectively. From these exploration times the following variables were calculated: e1, e2, and d2 (Table 1). The d2 index is a relative measure of discrimination corrected for exploratory activity. […]

[5] = system: scopolamine induced memory deficit in male Wistar rats; test: Object recognition task (ORT), scopolamine induced memory deficit; type: in vivo; conditions: scopolamine 0.1 mg/kg ip + vehicle
Text: The objective of this study is to evaluate the efficacious dose range of roflumilast with regard to cognitive improvement effects by using scopolamine induced memory deficit on object memory performance in male Wistar rats. Memory acquisition processes are investigated using the object recognition test (ORT).
Maintenance of Animals: Sixteen 3-4 month old male Wistar rats (Charles River, Sulzfeld, Germany) were used for the study. All animals were housed individually in standard green line Tecniplast IVC cages on stardust bedding. The animals were housed on a reversed 12/12 h light/dark cycle (lights on from 07:00 pm to 07:00 am) and had free access to food and water. The rats were housed and tested in the same room. A radio, playing softly, provided background noise in the room. All testing was performed between 09:00 am and 06:00 pm.
Preparation of Compounds: Drugs were prepared daily, except as indicated otherwise. Roflumilast (Takeda, Konstanz, Germany, MW 403.21) was dissolved in 98% methylcellulose solution (0.5% methylcellulose) and 2% Tween 80. Roflumilast in doses of 0 (vehicle), 0.0001, 0.0003, 0.001, 0.003, 0.01 and 0.03 mg/kg was administered intraperitoneally (ip, injection volume 1 ml/kg). Scopolamine (in form of scopolamine hydrobromide) was dissolved in saline (0.9% NaCl). Scopolamine hydrobromide was administered intraperitoneally at a dose of 0.1 mg/kg (ip, injection volume 1 ml/kg). Scopolamine and roflumilast were administered 30 min before T1.
Object Recognition Task in Rats: The ORT was performed as described elsewhere (Ennaceur and Delaceur, 1988, Behav Brain Res, Vol 31, pp 47-59; Akkerman et al; 2012, Behav Brain Res, Vol 232, pp 335-347). The apparatus consisted of a circular arena, 83 cm in diameter. The back half of the 40 cm high wall was made of grey PVC and the front was made of transparent PVC. Fluorescent red tubes and a light bulb provided a constant illumination of about 20 lux on the floor of the apparatus. The light intensity was equal in the different parts of the apparatus.
Two objects were placed in symmetrical positions at the mid-line between the gray and transparent halves of the arena, about ten centimeters away from wall. Four different sets of objects were available: 1) a standard 1 L brown transparent glass bottle (diameter 10 cm, height 22 cm) filled with water, 2) a metal cube (10.0×5.0×7.5 cm) with two holes (diameter 1.9 cm), 3) a cone consisting of a gray PVC base (maximal diameter 18 cm) with a collar on top made of brass (total height 16 cm), and 4) an aluminium cube with a tapering top (13.0×8.0×8.0 cm). Objects were presented to the animals in a balanced manner to avoid object or place biases. Rats were unable to displace the objects.
A test session comprised two trials, each with durations of 3 min. During the learning trial (T1) the apparatus contains two identical objects (object al and a2). Rats were always introduced into the apparatus with their nose towards the transparent wall segment (i.e. facing outwards to the front of the arena). Subsequently, rats were put back in its home cage for a 1 h interval. After the retention interval, rats were put back into the arena for the […] (T2). In T2, the two objects from T1 were replaced by one identical copy (a3) and a different novel object (b). The times spent in exploring each object during T1 and T2 were recorded manually on a personal computer.
Exploration was defined in the following manner: directing the nose to the object at a distance of no more than 2 cm and/or touching the object with the nose. Sitting on the object was not considered as exploratory behavior. In order to avoid the presence of olfactory cues, the objects were thoroughly cleaned with a 70% ethanol solution before each trial.
Prior to compound testing, the animals were handled for 5 min on 2 consecutive days and allowed to explore the ORT arena, also for 5 min. […]

SMILES: O=C(Nc1c(Cl)c[n+]([O-])cc1Cl)c1ccc(OC(F)F)c(OCC2CC2)c1 [roflumilast-N-oxide, 3-cyclopropyl-methoxy-4-difluoromethoxy-N-(3,5-dichloro-1-oxypyrid-4-yl)benzamide]
- share of overall phosphodiesterase 4 inhibition in humans [1]: more than 90%
- exposure (concentrations in plasma) ([2]; elderly study, interim analysis, 100, 250, 1000 mcg): consistent with those previously reported
- steady state plasma concentration levels in once a day repeated dosing compared to once a day single dosing ([2]; humans, once a day (24 h) regimen): about two-fold

SMILES: COc1ccc(C2CNC(=O)C2)cc1OC1CCCC1 (stereo not drawn) [rolipram]
- emetic potential [3]: strong emetic potential
- d2 index, discrimination index between the new and familiar objects for T2 ([4]; 0.01 mg/kg s.c.): 0.08 (0.05)
- d2 index compared with the vehicle condition (post-hoc Bonferroni t-test) ([4]; 0.03 mg/kg s.c.): differed significantly from the vehicle condition
- d2 index, discrimination index between the new and familiar objects for T2 ([4]; 0.03 mg/kg s.c.): 0.13 (0.05) #
- d2 index compared with zero (one-sample t-test) ([4]; 0.03 mg/kg s.c., after twenty-four hours): significantly differed from zero
- d2 index, discrimination index between the new and familiar objects for T2 ([4]; 0.1 mg/kg s.c.): 0.07 (0.05)
- effect on spatial memory measured by the object location task test ([4]; single subcutaneous administration of 0.03 mg/kg): effective

SMILES: CN1[C@@H]2C[C@@H](OC(=O)[C@H](CO)c3ccccc3)C[C@H]1[C@@H]1O[C@@H]12 [scopolamine]
- d2 value compared to the vehicle condition (post-hoc Bonferroni t-test) [5]: significantly lower
- d2 (discrimination index) ([5]; 1 h retention, mean (SEM)): 0.01 (0.08)
